Assay results: patent publication US6495576B2, “Aminal diones as potassium channel openers” (Abbott Laboratories, priority 2001, dated 2002)
Read-outs that look alike come from different tables or passages of the source.

Tested on: Landrace pig bladder strips
Test: Functional potassium channel opening activity in isolated, field-stimulated bladder strips
Settings: for Index: ED50 for P1075 divided by ED50 for test agonist in a given tissue, averaged; for Emax / Efficacy (%P1075): maximal efficacy on stimulated twitch, relative to P1075; for EC50: amount causing 50% of the agent's maximal response, field stimulation 0.05 Hz, 0.5 ms, 20 volts, read-out: ED50 (the source's name)
Procedure: Compound were evaluated for functional potassium channel opening activity using tissue strips obtained from Landrace pig bladders.
Landrace pig bladders were obtained from female Landrace pigs of 9-30 kg. Landrace pig were euthanized with an intraperitoneal injection of pentobarbital solution, Somlethal ®, J. A. Webster Inc. Sterling Mass. The entire bladder was removed and immediately placed into Krebs Ringer bicarbonate solution (composition, mM: NaCl, 120; NaHCO3, 20; dextrose, 11; KCl, 4.7; CaCl2, 2.5; MgSO4, 1.5; KH2PO4, 1.2; K2EDTA, 0.01, equilibrated with 5% CO2/95% O2 pH 7.4 at 37° C.). Propranolol (0.004 mM) was included in all of the assays to block β-adrenoceptors. The trigonal and dome portions were discarded. Strips 3-5 mm wide and 20 mm long were prepared from the remaining tissue cut in a circular fashion. The mucosal layer was removed. One end was fixed to a stationary glass rod and the other to a Grass FT03 transducer at a basal preload of 1.0 gram. Two parallel platinum electrodes were included in the stationary glass rod to provide field stimulation of 0.05 Hz, 0.5 milli-seconds at 20 volts. This low frequency stimulation produced a stable twitch response of 100-500 centigrams. Tissues were allowed to equilibrate for at least 60 minutes and primed with 80 mM KCl. A control concentration response curve (cumulative) was generated for each tissue using the potassium channel opener P1075 as the control agonist. […] After a 60 minute rinsing period, a concentration response curve (cumulative) was generated for the test agonist in the same fashion as that used for control agonist P1075. The maximal efficacy of each compound (expressed as % relative to P1075) is reported. The amount of agent necessary to cause 50% of the agent's maximal response (ED50) was calculated using “ALLFIT” (DeLean et al., Am. J. Physiol., 235, E97 (1980)), hereby incorporated by reference. Agonist potencies were also expressed as an index relative to P1075. The index was calculated by dividing the ED50 for P1075 by the ED50 for the test agonist in a given tissue. Each tissue was used for only one test agonist, and the indices obtained from each tissue were averaged to provide an average index of potency.

SMILES	EC50 [nM]	EC50 (Sus scrofa) [nM]	Index	Emax (Sus scrofa) [%]	Efficacy (%P1075)
CC(C)(C)C(NC(=O)c1cccc(F)c1)Nc1c(Nc2cccnc2)c(=O)c1=O (stereo not shown) [Example 7, N-(1-{[3,4-Dioxo-2-(3-pyridinylamino)-1-cyclobuten-1-yl]amino}-2,2-dimethylpropyl)-3-fluorobenzamide]	–	–	0.025	–	–
CC(C)(C)C(NC(=O)CCc1ccccc1)Nc1c(Nc2cccnc2)c(=O)c1=O (stereo not shown) [Example 36, N-(1-{[3,4-Dioxo-2-(3-pyridinylamino)-1-cyclobuten-1-yl]amino}-2,2-dimethylpropyl)-3-phenylpropionamide]	–	–	0.063	–	–
Cc1cccc(C(=O)NC(Nc2c(Nc3cccnc3Cl)c(=O)c2=O)C(C)(C)Cc2ccccc2)c1 (stereo not shown) [Example 61, N-[1-({2[(2-Chloropyiridin-3-yl)amino]-3,4-dioxo-1-cyclobuten-1-yl}amino)-2,2-dimethyl-3-phenylpropyl]-3-methylbenzamide]	470	–	0.50	–	64
CC(C)(C)C(NC(=O)c1cc(F)cc(F)c1)Nc1c(Nc2cccnc2)c(=O)c1=O (single isomer, unassigned; (+)) [Example 49, (+)N-(1-{[3.4-Dioxo-2-(3-pyridinylamino)-1-cyclobuten-1-yl]amino}-2,2-dimethylpropyl)-3,5-difluorobenzamide]	1200	–	0.071	–	100
CC(Cl)(Cl)C(NC(=O)c1cc(F)cc(F)c1)Nc1c(Nc2cccnc2)c(=O)c1=O (stereo not shown) [Example 51, N-(2,2-Dichloro-1-{[3,4dioxo-2-(3-pyridinylamino)-1-cyclobuten-1-yl]amino}propyl)-3,5-difluorobenzamide]	–	1400	0.080	96	–
CC(C)(Cc1ccccc1)C(NC(=O)c1ccccc1)Nc1c(Nc2cccnc2)c(=O)c1=O (stereo not shown) [Example 86]	640	–	0.24	–	85
CC(C)(C)C(NC(=O)c1cc(Cl)cc(Cl)c1)Nc1c(Nc2cccnc2)c(=O)c1=O (stereo not shown) [Example 12, 3,5-Dichloro-N-(1-{[3,4-dioxo-2-(3-pyridinylamino)-1-cyclobuten-1-yl]amino}-2,2-dimethylpropyl)benzamide]	–	–	0.12	–	–
CC(C)(C)C(NC(=O)c1cc(F)cc(F)c1)Nc1c(Nc2cccnc2)c(=O)c1=O (stereo not shown) [Example 16, N-(1-{[3,4-Dioxo-2-(3-pyridinylamino)-1-cyclobuten-1-yl]amino}-2,2-dimethylpropyl)-3,5-difluorobenzamide]	–	–	0.046	–	–
CC(C)(Cc1ccccc1)C(NC(=O)c1cccc(Cl)c1)Nc1c(Nc2cccnc2)c(=O)c1=O (stereo not shown) [Example 59, 3-Chloro-N-(1-{[3,4-dioxo-2-(3-pyridinylamino)-1-cyclobuten-1-yl]amino}-2,2-dimethyl-3-phenylpropyl)benzamide]	–	1700	0.062	57	–
CC(C)(C)CC(NC(=O)c1cccc(Cl)c1)Nc1c(Nc2cccnc2)c(=O)c1=O (stereo not shown) [Example 64, 3-Chloro-N-(1-{[3,4-dioxo-2-(3 pyridinylamino)-1-cyclobuten-1-yl]amino}-3,3-dimethylbutyl)benzamide]	–	4200	0.025	76	–
CC(C)(C)C(NC(=O)c1ccc(Cl)cc1)Nc1c(Nc2cccnc2Cl)c(=O)c1=O (stereo not shown) [Example 29, 4-Chloro-N-[1-({2-[(2-chloro-3-pyridinyl)amino]-3,4-dioxo-1-cyclobuten-1-yl}amino)-2,2-dimethylpropyl]benzamide]	–	–	0.028	–	–
Cc1cccc(C(=O)NC(Nc2c(Nc3cccnc3)c(=O)c2=O)C(C)(C)C)c1 (stereo not shown) [Example 6, N-(1-{[3,4-Dioxo-2-(3-pyridinylamino)-1-cyclobuten-1-yl]amino}-2,2-dimethylpropyl)-3-methylbenzamide]	–	–	0.067	–	–
CCC(CC)C(NC(=O)c1ccc(Cl)cc1)Nc1c(Nc2cccnc2)c(=O)c1=O (stereo not shown) [Example 21, 4-Chloro-N-(1-{[3,4-dioxo-2-(3-pyridinylamino)-1-cyclobuten-1-yl]amino}-2-ethylbutyl)benzamide]	–	–	0.092	–	–
CC(C)(Cc1ccccc1)C(NC(=O)c1cc(F)cc(F)c1)Nc1c(Nc2cccnc2)c(=O)c1=O (stereo not shown) [Example 55, N-(1-{[3,4-Dioxo-2-(3-pyridinylamino)-1-cyclobuten-1-yl]amino}-2,2-dimethyl-3-phenylpropyl)-3,5-difluorobenzamide]	–	2300	0.053	75	–
CC(C)(Cc1ccccc1)C(NC(=O)c1ccc(Cl)cc1)Nc1c(Nc2cccnc2Cl)c(=O)c1=O (stereo not shown) [Example 31, 4-Chloro-N-[1-({2-[(2-chloro-3-pyridinyl)amino]-3,4-dioxo-1-cyclobuten-1-yl}amino)-2,2-dimethyl-32-phenylpropyl]benzamide]	2900	–	0.039	–	76

Now from value to molecule, other results behind:

EC50 [nM]	EC50 (Sus scrofa) [nM]	SMILES	Index	Emax (Sus scrofa) [%]	Efficacy (%P1075)
4000	–	CC(C)(C)C(NC(=O)c1cccc(Cl)c1)Nc1c(Nc2cccnc2)c(=O)c1=O (single isomer, unassigned; (-)) [Example 57, (−) 3-Chloro-N-(1-{[3,4-dioxo-2-(3-pyridinylamino)-1-cyclobuten-1-yl]amino}-2,2-dimethylpropyl)benzamide]	0.015	81	–
–	4600	CC(C)(C)C(NC(=O)c1cc(Cl)cc(Cl)c1)Nc1c(Nc2cccnc2Cl)c(=O)c1=O (stereo not shown) [Example 79, 3,5-Dichloro-N-[1-({2-[(2-chloropyridin-3-yl)amino]-3,4-dioxocyclobut-1-en-1-yl}amino)-2,2-dimethylpropyl]benzamide]	0.024	60	–
–	2500	CC(C)(C)C(NC(=O)c1cccc(Br)c1)Nc1c(Nc2cccnc2Cl)c(=O)c1=O (stereo not shown) [Example 67, 3-Bromo-N-[1-({2-[(2-chloropyridin-3-yl)amino]-3,4-dioxo-1-cyclobuten-1-yl}amino)-2,2-dimethylpropyl]benzamide]	0.029	72	–
–	4200	CC(C)(C)[C@H](NC(=O)c1cc(Cl)cc(Cl)c1)Nc1c(Nc2cccnc2Cl)c(=O)c1=O [Example 108, (+) 3,5-Dichloro-N-[(1S)-1-({2-[(2-chloropyridin-3-yl)amino]-3,4-dioxocyclobut-1-en-1-yl}amino)-2,2-dimethylpropyl]benzamide]	0.033	89	–
2200	–	CC(C)(C)C(NC(=O)c1cccc(Cl)c1)Nc1c(Nc2cccnc2)c(=O)c1=O (single isomer, unassigned; (+)) [Example 56, (+) 3-Chloro-N-(1-{[3.4-dioxo-2-(3-pyridinylamino)-1-cyclobuten-1-yl]amino}-2,2-dimethylpropyl)benzamide]	0.028	–	94
840	–	CC(C)(C)C(NC(=O)c1cccc(F)c1)Nc1c(Nc2cccnc2Cl)c(=O)c1=O (stereo not shown) [Example 78]	0.18	–	98
1900	–	CC(C)(C)C(NC(=O)CCc1ccccc1)Nc1c(Nc2cccnc2Cl)c(=O)c1=O (stereo not shown) [Example 87, N-[1-({2-[(2-chloropyridin-3-yl)amino]-3,4-dioxo-1-cyclobuten-1-yl}amino)-2,2-dimethylpropy1]-3-phenylpropanamide]	0.039	–	96
